Measurements from ChEMBL document CHEMBL5696441 (Nat Chem Biol, 2011).

Key:
[1] = target: T1, Inhibitor of nuclear factor kappa-B kinase subunit alpha (Homo sapiens) (UniProt O15111); experiment: Inhibition of human IKKalpha assessed as residual activity at 1 uM using RBER-CHKtide as substrate in presence of 33P-ATP by ProQinase assay relative to control
T1 sequence (whole entry): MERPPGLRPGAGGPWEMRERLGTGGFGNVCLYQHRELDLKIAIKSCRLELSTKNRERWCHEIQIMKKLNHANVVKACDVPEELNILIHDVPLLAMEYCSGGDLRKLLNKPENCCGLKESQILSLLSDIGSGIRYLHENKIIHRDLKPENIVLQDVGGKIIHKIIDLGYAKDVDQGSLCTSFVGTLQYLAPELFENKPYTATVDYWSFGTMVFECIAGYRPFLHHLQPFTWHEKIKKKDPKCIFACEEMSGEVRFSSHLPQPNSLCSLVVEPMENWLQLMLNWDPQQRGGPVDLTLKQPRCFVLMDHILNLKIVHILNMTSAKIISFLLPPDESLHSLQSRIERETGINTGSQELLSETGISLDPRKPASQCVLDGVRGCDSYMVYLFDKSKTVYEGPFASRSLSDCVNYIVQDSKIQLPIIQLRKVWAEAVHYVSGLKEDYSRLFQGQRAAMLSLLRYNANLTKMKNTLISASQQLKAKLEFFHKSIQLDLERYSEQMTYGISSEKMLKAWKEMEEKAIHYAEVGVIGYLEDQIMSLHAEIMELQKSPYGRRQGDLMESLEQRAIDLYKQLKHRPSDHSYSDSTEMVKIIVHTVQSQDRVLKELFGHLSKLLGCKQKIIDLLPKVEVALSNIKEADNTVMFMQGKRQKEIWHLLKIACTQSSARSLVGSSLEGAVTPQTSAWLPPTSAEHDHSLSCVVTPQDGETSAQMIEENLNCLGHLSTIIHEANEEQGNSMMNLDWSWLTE

[2] = target: Mitogen-activated protein kinase 9 (Homo sapiens) (UniProt P45984); experiment: Inhibition of JNK2 (unknown origin) assessed as remaining activity at 1 uM by Kinome scan method relative to control
Chain of Mitogen-activated protein kinase 9 (Homo sapiens) (P45984 whole entry, looked up): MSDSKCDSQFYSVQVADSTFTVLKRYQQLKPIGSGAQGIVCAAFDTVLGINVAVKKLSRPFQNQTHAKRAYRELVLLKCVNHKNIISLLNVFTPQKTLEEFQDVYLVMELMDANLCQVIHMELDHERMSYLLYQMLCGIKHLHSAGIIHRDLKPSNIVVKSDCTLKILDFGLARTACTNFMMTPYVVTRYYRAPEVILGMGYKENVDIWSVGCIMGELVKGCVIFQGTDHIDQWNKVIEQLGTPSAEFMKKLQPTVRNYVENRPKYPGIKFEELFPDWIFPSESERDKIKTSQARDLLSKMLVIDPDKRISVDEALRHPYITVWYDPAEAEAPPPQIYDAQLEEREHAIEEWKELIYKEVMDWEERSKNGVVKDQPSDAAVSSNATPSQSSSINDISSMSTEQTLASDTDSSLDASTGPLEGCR

[3] = target: Glycogen synthase kinase-3 beta (Homo sapiens) (UniProt P49841); experiment: Inhibition of GSK3beta (unknown origin) assessed as remaining activity at 1 uM by Kinome scan method relative to control
Chain of Glycogen synthase kinase-3 beta (Homo sapiens) (P49841 whole entry, looked up): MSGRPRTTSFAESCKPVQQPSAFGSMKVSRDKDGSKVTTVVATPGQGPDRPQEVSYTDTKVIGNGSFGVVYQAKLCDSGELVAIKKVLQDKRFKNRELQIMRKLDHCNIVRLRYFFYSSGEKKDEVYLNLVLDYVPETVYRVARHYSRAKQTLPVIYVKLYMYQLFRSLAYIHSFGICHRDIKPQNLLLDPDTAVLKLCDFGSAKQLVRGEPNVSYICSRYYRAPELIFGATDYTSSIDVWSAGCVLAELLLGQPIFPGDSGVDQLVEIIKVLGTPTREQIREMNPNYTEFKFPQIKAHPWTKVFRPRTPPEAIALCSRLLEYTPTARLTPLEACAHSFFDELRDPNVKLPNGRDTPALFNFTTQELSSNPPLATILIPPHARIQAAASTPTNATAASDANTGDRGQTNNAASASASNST

[4] = target: Serine/threonine-protein kinase pim-3 (Homo sapiens) (UniProt Q86V86); experiment: Inhibition of human PIM3 assessed as residual activity at 1 uM using RBER-GSK3(14-27) as substrate in presence of 33P-ATP by ProQinase assay relative to control
[5] = system: Phosphatidylinositol 4,5-bisphosphate 3-kinase catalytic subunit alpha isoform (Homo sapiens), P42336 [Q546K]; experiment: Inhibition of PIK3CA Q546K mutant (unknown origin) assessed as remaining activity at 1 uM by Kinome scan method relative to control
Chain of Phosphatidylinositol 4,5-bisphosphate 3-kinase catalytic subunit alpha isoform (Homo sapiens), P42336 [Q546K] (P42336 whole entry Q546K, canonical isoform): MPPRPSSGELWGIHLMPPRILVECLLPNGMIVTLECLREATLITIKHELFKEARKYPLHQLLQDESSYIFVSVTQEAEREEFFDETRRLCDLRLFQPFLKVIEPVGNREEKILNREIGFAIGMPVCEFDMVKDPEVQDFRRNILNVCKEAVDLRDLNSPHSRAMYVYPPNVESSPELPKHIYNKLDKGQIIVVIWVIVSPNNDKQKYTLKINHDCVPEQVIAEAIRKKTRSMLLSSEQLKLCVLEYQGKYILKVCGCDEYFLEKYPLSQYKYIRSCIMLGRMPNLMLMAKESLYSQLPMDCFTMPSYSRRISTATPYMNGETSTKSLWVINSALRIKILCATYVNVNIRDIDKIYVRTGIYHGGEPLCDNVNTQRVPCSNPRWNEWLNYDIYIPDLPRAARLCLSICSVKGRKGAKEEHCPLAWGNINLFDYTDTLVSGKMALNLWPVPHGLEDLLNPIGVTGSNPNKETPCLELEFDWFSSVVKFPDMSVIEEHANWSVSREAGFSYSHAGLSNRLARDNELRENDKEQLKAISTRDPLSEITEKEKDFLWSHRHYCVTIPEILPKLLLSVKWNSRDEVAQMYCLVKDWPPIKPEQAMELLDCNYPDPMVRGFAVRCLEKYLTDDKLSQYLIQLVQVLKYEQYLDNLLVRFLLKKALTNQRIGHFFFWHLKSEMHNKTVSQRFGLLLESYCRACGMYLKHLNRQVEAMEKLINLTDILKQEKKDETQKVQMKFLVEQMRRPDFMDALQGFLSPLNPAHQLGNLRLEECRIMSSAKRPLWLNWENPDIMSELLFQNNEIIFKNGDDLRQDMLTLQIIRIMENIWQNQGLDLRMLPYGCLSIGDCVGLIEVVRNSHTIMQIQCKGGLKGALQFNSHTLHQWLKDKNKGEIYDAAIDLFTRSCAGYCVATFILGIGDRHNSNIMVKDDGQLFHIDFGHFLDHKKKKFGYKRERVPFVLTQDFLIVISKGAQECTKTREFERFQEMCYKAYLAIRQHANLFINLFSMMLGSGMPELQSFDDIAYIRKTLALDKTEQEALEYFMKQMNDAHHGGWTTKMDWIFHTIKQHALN

[6] = target: T2, cGMP-dependent protein kinase 1 (Homo sapiens) (UniProt Q13976); experiment: Inhibition of human PRKG1 assessed as residual activity at 1 uM using 3xChocktide-PKC(19-31) as substrate in presence of 33P-ATP by ProQinase assay relative to control
T2 sequence (whole entry): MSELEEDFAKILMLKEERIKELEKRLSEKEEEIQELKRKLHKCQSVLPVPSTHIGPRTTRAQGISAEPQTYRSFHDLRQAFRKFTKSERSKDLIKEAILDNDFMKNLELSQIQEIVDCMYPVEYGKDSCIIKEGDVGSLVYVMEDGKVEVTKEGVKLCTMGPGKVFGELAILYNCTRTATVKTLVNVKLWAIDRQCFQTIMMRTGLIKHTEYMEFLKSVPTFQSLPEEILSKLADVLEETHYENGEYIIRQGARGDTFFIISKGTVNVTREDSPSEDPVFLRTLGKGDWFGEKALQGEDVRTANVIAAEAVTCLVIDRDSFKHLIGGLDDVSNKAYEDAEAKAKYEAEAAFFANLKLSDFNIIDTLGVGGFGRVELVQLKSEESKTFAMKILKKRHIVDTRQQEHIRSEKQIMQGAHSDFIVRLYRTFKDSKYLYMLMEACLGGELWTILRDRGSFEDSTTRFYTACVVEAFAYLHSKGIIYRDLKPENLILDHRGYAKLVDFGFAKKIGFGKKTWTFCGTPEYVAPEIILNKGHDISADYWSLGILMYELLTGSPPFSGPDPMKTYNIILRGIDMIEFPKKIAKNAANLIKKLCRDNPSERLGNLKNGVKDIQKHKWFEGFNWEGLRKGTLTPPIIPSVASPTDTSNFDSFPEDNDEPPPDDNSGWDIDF

[7] = target: Calcium/calmodulin-dependent protein kinase type II subunit alpha (Homo sapiens) (UniProt Q9UQM7); experiment: Inhibition of CAMK2A (unknown origin) assessed as remaining activity at 1 uM by Kinome scan method relative to control
Chain of Calcium/calmodulin-dependent protein kinase type II subunit alpha (Homo sapiens) (Q9UQM7 whole entry): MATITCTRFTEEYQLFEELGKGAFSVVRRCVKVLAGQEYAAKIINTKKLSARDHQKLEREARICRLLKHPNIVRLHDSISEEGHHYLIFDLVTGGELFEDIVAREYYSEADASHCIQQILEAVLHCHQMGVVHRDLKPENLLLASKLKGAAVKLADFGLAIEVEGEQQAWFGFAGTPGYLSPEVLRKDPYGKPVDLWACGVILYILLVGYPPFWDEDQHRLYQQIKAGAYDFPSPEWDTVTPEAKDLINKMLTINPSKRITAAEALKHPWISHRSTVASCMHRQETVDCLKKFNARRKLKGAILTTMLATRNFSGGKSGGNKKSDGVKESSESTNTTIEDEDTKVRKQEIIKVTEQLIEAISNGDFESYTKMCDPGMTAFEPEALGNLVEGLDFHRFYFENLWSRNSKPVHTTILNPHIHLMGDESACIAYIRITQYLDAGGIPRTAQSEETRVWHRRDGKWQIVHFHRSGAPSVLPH

[8] = target: T3, Serine/threonine-protein kinase D1 (Homo sapiens) (UniProt Q15139); experiment: Inhibition of human PKCmu assessed as residual activity at 1 uM using RBER-CHKtide as substrate in presence of 33P-ATP by ProQinase assay relative to control
T3 sequence (whole entry): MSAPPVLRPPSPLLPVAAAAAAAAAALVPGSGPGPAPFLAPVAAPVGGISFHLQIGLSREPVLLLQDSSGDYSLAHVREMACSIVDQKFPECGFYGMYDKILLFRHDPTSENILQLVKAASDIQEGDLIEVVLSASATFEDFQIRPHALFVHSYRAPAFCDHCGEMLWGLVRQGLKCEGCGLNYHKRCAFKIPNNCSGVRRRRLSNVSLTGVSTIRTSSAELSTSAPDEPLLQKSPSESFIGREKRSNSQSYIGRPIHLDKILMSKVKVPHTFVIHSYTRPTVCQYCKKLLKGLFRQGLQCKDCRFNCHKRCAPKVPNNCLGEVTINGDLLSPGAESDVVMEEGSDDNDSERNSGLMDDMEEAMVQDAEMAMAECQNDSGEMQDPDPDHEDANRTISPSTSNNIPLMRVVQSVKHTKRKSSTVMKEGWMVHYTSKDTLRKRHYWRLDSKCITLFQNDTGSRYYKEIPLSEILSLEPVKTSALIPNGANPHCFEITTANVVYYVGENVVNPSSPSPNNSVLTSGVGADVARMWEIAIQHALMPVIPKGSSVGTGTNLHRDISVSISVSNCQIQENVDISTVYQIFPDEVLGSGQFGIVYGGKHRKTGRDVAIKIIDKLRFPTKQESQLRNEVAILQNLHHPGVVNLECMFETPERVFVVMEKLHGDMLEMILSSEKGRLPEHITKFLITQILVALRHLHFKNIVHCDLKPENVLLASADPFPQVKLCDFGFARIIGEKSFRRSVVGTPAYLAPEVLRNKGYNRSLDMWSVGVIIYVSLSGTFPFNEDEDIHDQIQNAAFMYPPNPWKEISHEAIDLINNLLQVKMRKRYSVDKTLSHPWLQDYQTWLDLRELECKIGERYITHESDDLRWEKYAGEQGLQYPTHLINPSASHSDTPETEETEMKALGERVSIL

With O=C1c2ccc(Nc3ccc(F)cc3F)cc2CCc2ccc(OC[C@H](O)CO)cc21 [Skepinone-L] the Activity [1] was 88%, the Activity [2] was 100% and the Activity [3] was 97%. The Activity [4] was 78%, the Activity [5] was 100% and the Activity [6] was 110%. For the same molecule, the Activity [7] was 100% and the Activity [8] was 92%.
